Experimental findings from patent publication US20210346385A1, “TASTE-MASKED DOSAGE FORMS” (MSB Holdings, Inc, priority 2018, published 2021) are described below.

This data set in a line: Dissolving time of the troche. Type of data set: physicochemical.
Where [1] appears, read: ingredient in troche of Example 4c, troche with silica, acacia and Winterfresh.
Setting [2] is: ingredient in troche of Example 4d, troche with Alpha agent, silica, acacia, cherry.
[3] abbreviates: ingredient in troche of Example 4j.
Setting [4] is: ingredient in troche of Example 4k.
[5] abbreviates: ingredient in troche of Example 4l.
The mark [6] stands for this setting: ingredient in troche of Example 4m.
[7] abbreviates: ingredient in troche of Example 4n.
Setting [8] is: ingredient in troche of Example 4o (ButterCream).
[9] abbreviates: ingredient in troche of Example 4o (Vanilla, Marshmallow).
Setting [10] is: ingredient in troche of Example 4p.
The mark [11] stands for this setting: ingredient in troche of Example 42.
The mark [12] stands for this setting: ingredient in troche of Example 4h.
[13] abbreviates: ingredient in troche of Example 4f.
Setting [14] is: ingredient in troche of Example 4i.

For the compound Sugar, the “Dissolving time: remark for the single ingredient” value (from here on “Dissolving time: remark”) by setting is: (ingredient in troche of Example 4b) “Did Not Help”; under setting [1], “Did Not Help”; under setting [2], “No effect”.
With `C=C1C[C@@]23CC[C@H]4[C@@](C)(CCC[C@@]4(C)C(=O)O)[C@@H]2CC[C@]1(O)C3` [Steviol], the “Dissolving time: remark” value under setting [3] was “No effect”; the “Dissolving time: remark” value under setting [4] was “No effect”; the “Dissolving time: remark” value under setting [5] is given as “No effect”; the “Dissolving time: remark” value under setting [6] is “No effect”; the “Dissolving time: remark” value under setting [7] is “No effect”; the “Dissolving time: remark” value under setting [8] was “No effect”. Further, the “Dissolving time: remark” value under setting [9] is given as “No effect”, the “Dissolving time: remark” value under setting [10] is listed as “No effect”, the “Dissolving time: remark” value under setting [11] is given as “No effect” and the “Dissolving time: remark” value under setting [12] is “No effect”.
`CCCc1nn(C)c2c(=O)[nH]c(-c3cc(S(=O)(=O)N4CCN(C)CC4)ccc3OCC)nc12` [Sildenafil, reference compound]: the “Dissolving time: remark” value is, setting by setting: under setting [1], “No effect”; (ingredient in troche of Example 4e) “No effect”; under setting [13], “No effect”; under setting [14], “No effect”; under setting [3], “No effect”; under setting [4], “No effect”. The “Dissolving time: remark” value runs as follows: under setting [5], “No effect”; under setting [6], “No effect”; under setting [7], “No effect”; under setting [8], “No effect”; under setting [9], “No effect”; under setting [10], “No effect”. Further, the “Dissolving time: remark” value reads like this: under setting [11], “No effect”; under setting [12], “No effect”; under setting [2], “No effect”.
Regarding `CC1=CC(=O)NS(=O)(=O)O1` [Acesulfame], the “Dissolving time: remark” value is “No effect” under setting [13]; “No effect” under setting [14]; “No effect” under setting [3]; “No effect” under setting [4]; “No effect” under setting [5]; “No effect” under setting [6]. In addition, the “Dissolving time: remark” value is, setting by setting: under setting [7], “No effect”; under setting [8], “No effect”; under setting [9], “No effect”; under setting [10], “No effect”.
